According to PubChem BioAssay (NCI):
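Interpolation was linear, between the two tested concentrations surrounding the appropriate level; five concentrations were tested over 48 hours in 96-well plates. At the GI50, growth is halved. TGI denotes the concentration required for complete inhibition of growth.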

Assays:
Assay in all cases: NCI tumour cell line growth inhibition, 48 h; in the data active = GI50 below about 0.43 µM; inactive = the rest
A549 NSCLC = system: A549 NSCLC
IGROV1 ovarian = system: IGROV1 ovarian
M14 melanoma = system: M14 melanoma
RXF 393 renal = system: RXF 393 renal
SN12C renal = system: SN12C renal
UO-31 renal = system: UO-31 renal
CCRF-CEM leukemia = system: CCRF-CEM leukemia
HOP-92 NSCLC = system: HOP-92 NSCLC
MDA-MB-435 = system: MDA-MB-435
T-47D breast = system: T-47D breast

O=C([CH-]C(=O)c1ccccc1)c1ccccc1.O=C([CH-]C(=O)c1ccccc1)c1ccccc1.[CH2-]CCC.[CH2-]CCC.[Sn+4]
0.416 µM: TGI (RXF 393 renal)
4.12 µM: TGI (A549 NSCLC)
2.29 µM: TGI (UO-31 renal)
1.75 µM: TGI (SN12C renal)
1.59 µM: TGI (M14 melanoma)
inactive: GI50 (A549 NSCLC) 1820 nM | GI50 (IGROV1 ovarian) 1.21 µM | GI50 (SN12C renal) 509 nM | GI50 (UO-31 renal) 1080 nM
active: GI50 (M14 melanoma) 0.394 µM | GI50 (RXF 393 renal) 128 nM
2.79 µM: TGI (IGROV1 ovarian)

CC[C@H]1[C@@H](C)C=C[C@@H](C)N1S(=O)(=O)c1ccc(C)cc1
27.5 µM: TGI (UO-31 renal)
> 100 µM: TGI (A549 NSCLC) | TGI (CCRF-CEM leukemia) | TGI (M14 melanoma) | TGI (RXF 393 renal) | TGI (SN12C renal)

Cc1cc2c(=O)cc(-c3ccc(Cl)c(Cl)c3)oc2c(C(=O)O)c1C
> 100 µM: TGI (A549 NSCLC) | TGI (CCRF-CEM leukemia) | TGI (IGROV1 ovarian) | TGI (M14 melanoma) | TGI (RXF 393 renal) | TGI (SN12C renal) | TGI (UO-31 renal)

COC(=O)CCC(=O)C(CC(=O)OC)C(=O)CCC(=O)NCCc1ccccc1 (stereo not drawn)
> 100 µM: TGI (A549 NSCLC) | TGI (CCRF-CEM leukemia) | TGI (HOP-92 NSCLC) | TGI (IGROV1 ovarian) | TGI (M14 melanoma) | TGI (RXF 393 renal) | TGI (SN12C renal) | TGI (UO-31 renal)

CN(CCNc1ccc(C(=N)N)cc1)c1ccc(C(=N)N)cc1
active: GI50 (A549 NSCLC) 249 nM
> 100 µM: TGI (A549 NSCLC) | TGI (CCRF-CEM leukemia) | TGI (IGROV1 ovarian) | TGI (M14 melanoma) | TGI (MDA-MB-435) | TGI (SN12C renal) | TGI (T-47D breast) | TGI (UO-31 renal)
inactive: GI50 (CCRF-CEM leukemia) 88.8 µM | GI50 (IGROV1 ovarian) 68.8 µM | GI50 (M14 melanoma) 57 µM | GI50 (MDA-MB-435) 66.3 µM | GI50 (SN12C renal) 5530 nM | GI50 (T-47D breast) 23.9 µM | GI50 (UO-31 renal) 54800 nM

S=C1NC(c2ccccc2)=NC(Cc2ccccc2)(c2ccccc2)N1c1ccccc1 (stereo not drawn)
> 100 µM: TGI (A549 NSCLC) | TGI (CCRF-CEM leukemia) | TGI (HOP-92 NSCLC) | TGI (IGROV1 ovarian) | TGI (M14 melanoma) | TGI (RXF 393 renal) | TGI (SN12C renal) | TGI (UO-31 renal)

CCC(CO)COC(=O)/C=C/C(=O)OCC(CC)CO (stereo not drawn)
> 100 µM: TGI (A549 NSCLC) | TGI (HOP-92 NSCLC) | TGI (IGROV1 ovarian) | TGI (M14 melanoma) | TGI (RXF 393 renal) | TGI (SN12C renal) | TGI (UO-31 renal)
> 82.6 µM: TGI (CCRF-CEM leukemia)

Cc1cc2c(=O)cc(-c3ccc(O)cc3)oc2c(C(=O)O)c1C
> 100 µM: TGI (A549 NSCLC) | TGI (CCRF-CEM leukemia) | TGI (HOP-92 NSCLC) | TGI (IGROV1 ovarian) | TGI (M14 melanoma) | TGI (SN12C renal) | TGI (UO-31 renal)

CN1C[C@@H]2CC(=O)CC[C@@H]2C[C@H]1C#N
> 100 µM: TGI (A549 NSCLC) | TGI (CCRF-CEM leukemia) | TGI (HOP-92 NSCLC) | TGI (IGROV1 ovarian) | TGI (M14 melanoma) | TGI (SN12C renal) | TGI (UO-31 renal)

Cc1ccc(S(=O)OC2c3ccccc3Cc3ccccc32)cc1 (stereo not drawn)
49.6 µM: TGI (SN12C renal)
45.7 µM: TGI (UO-31 renal)
26.8 µM: TGI (RXF 393 renal)
33.8 µM: TGI (M14 melanoma)
36.5 µM: TGI (HOP-92 NSCLC)
87.2 µM: TGI (A549 NSCLC)
45.6 µM: TGI (IGROV1 ovarian)

Cc1cc2c(=O)cc(-c3ccc(Cl)cc3Cl)oc2c(C(=O)O)c1C
> 100 µM: TGI (A549 NSCLC) | TGI (CCRF-CEM leukemia) | TGI (IGROV1 ovarian) | TGI (M14 melanoma) | TGI (RXF 393 renal) | TGI (SN12C renal) | TGI (UO-31 renal)

Cc1ccc(C)c(N2C(=O)C(=O)C(c3nc4ccccc4s3)C(=O)C2=O)c1
> 100 µM: TGI (A549 NSCLC) | TGI (CCRF-CEM leukemia) | TGI (HOP-92 NSCLC) | TGI (IGROV1 ovarian) | TGI (M14 melanoma) | TGI (RXF 393 renal) | TGI (SN12C renal) | TGI (UO-31 renal)

Cc1cc(C)c2c(=O)cc(-c3ccc(F)cc3)[nH]c2n1
inactive: GI50 (MDA-MB-435) 18.6 µM
40.6 µM: TGI (MDA-MB-435)
> 100 µM: TGI (A549 NSCLC) | TGI (CCRF-CEM leukemia) | TGI (IGROV1 ovarian) | TGI (M14 melanoma) | TGI (SN12C renal) | TGI (T-47D breast)
92.4 µM: TGI (UO-31 renal)
90.3 µM: TGI (HOP-92 NSCLC)

COC(=O)c1oc([N+](=O)[O-])c(-c2ccccc2)c1-c1ccccc1
> 100 µM: TGI (A549 NSCLC) | TGI (CCRF-CEM leukemia) | TGI (HOP-92 NSCLC) | TGI (IGROV1 ovarian) | TGI (M14 melanoma) | TGI (SN12C renal) | TGI (UO-31 renal)

Cn1cnc([N+](=O)[O-])c1Sc1nccn1-c1ccccc1
81.1 µM: TGI (HOP-92 NSCLC)
> 100 µM: TGI (A549 NSCLC) | TGI (CCRF-CEM leukemia) | TGI (IGROV1 ovarian) | TGI (M14 melanoma) | TGI (SN12C renal) | TGI (UO-31 renal)

CC(=O)NS(=O)(=O)c1ccc(-n2nc(-c3ccccc3)cc2-c2cc(O)ccc2O)cc1
> 100 µM: TGI (A549 NSCLC) | TGI (CCRF-CEM leukemia) | TGI (HOP-92 NSCLC) | TGI (IGROV1 ovarian) | TGI (M14 melanoma) | TGI (MDA-MB-435) | TGI (SN12C renal) | TGI (T-47D breast) | TGI (UO-31 renal)
inactive: GI50 (A549 NSCLC) > 100000 nM | GI50 (CCRF-CEM leukemia) > 100 µM | GI50 (HOP-92 NSCLC) > 100000 nM | GI50 (IGROV1 ovarian) > 100 µM | GI50 (M14 melanoma) 31.4 µM | GI50 (MDA-MB-435) > 100 µM | GI50 (SN12C renal) > 100000 nM | GI50 (T-47D breast) > 100 µM | GI50 (UO-31 renal) > 100000 nM

CSc1nc(SC)c2c(C)cn(Cc3ccccc3)c2n1
> 100 µM: TGI (A549 NSCLC) | TGI (CCRF-CEM leukemia) | TGI (HOP-92 NSCLC) | TGI (IGROV1 ovarian) | TGI (M14 melanoma) | TGI (MDA-MB-435) | TGI (SN12C renal) | TGI (T-47D breast) | TGI (UO-31 renal)

CC1=CC=C2C(C)(C)CC[C@@H]3OC(=O)[C@H]1[C@]23C
> 100 µM: TGI (A549 NSCLC) | TGI (CCRF-CEM leukemia) | TGI (HOP-92 NSCLC) | TGI (IGROV1 ovarian) | TGI (M14 melanoma) | TGI (RXF 393 renal) | TGI (SN12C renal) | TGI (UO-31 renal)

COC1OC(CO)C(O)C(NC(=O)N(C)N=O)C1O (stereo not drawn)
> 100 µM: TGI (A549 NSCLC) | TGI (CCRF-CEM leukemia) | TGI (HOP-92 NSCLC) | TGI (IGROV1 ovarian) | TGI (M14 melanoma) | TGI (RXF 393 renal) | TGI (SN12C renal) | TGI (UO-31 renal)

O=C1C2=C(c3ccccc31)C(c1ccccc1Cl)NC(=S)N2 (stereo not drawn)
> 100 µM: TGI (A549 NSCLC) | TGI (CCRF-CEM leukemia) | TGI (IGROV1 ovarian) | TGI (M14 melanoma) | TGI (SN12C renal) | TGI (UO-31 renal)
68.4 µM: TGI (HOP-92 NSCLC)

Cc1cn2c(/C=N/NC3=NCCN3)c(-c3ccc(Cl)c([N+](=O)[O-])c3)nc2s1
2.82 µM: TGI (HOP-92 NSCLC)
inactive: GI50 (HOP-92 NSCLC) 776 nM | GI50 (M14 melanoma) 1.06 µM | GI50 (SN12C renal) 942 nM | GI50 (T-47D breast) 1.75 µM | GI50 (UO-31 renal) 715 nM
> 50 µM: TGI (T-47D breast)
1.44 µM: TGI (UO-31 renal)
2.17 µM: TGI (M14 melanoma)
1.96 µM: TGI (SN12C renal)

C=CCC1=C2CCCCC2CCC1=O (stereo not drawn)
> 100 µM: TGI (A549 NSCLC) | TGI (CCRF-CEM leukemia) | TGI (IGROV1 ovarian) | TGI (M14 melanoma) | TGI (RXF 393 renal) | TGI (SN12C renal) | TGI (UO-31 renal)

CC(=O)OC1C(COC(N)=O)OC(n2c(-c3ccc(C)cc3)cc(-c3ccccc3)c(C#N)c2=O)C(OC(C)=O)C1OC(C)=O (stereo not drawn)
> 100 µM: TGI (A549 NSCLC) | TGI (CCRF-CEM leukemia) | TGI (HOP-92 NSCLC) | TGI (IGROV1 ovarian) | TGI (M14 melanoma) | TGI (RXF 393 renal) | TGI (SN12C renal) | TGI (UO-31 renal)

CCCCN(CCCC)C(=O)C(=O)C(C(=O)C(=O)OC)c1nc2ccccc2o1 (stereo not drawn)
> 100 µM: TGI (A549 NSCLC) | TGI (CCRF-CEM leukemia) | TGI (HOP-92 NSCLC) | TGI (IGROV1 ovarian) | TGI (M14 melanoma) | TGI (SN12C renal) | TGI (UO-31 renal)
99 µM: TGI (RXF 393 renal)
